The text below walks through data of US11787796B2, “Plasma Kallikrein inhibitors and uses thereof” (Takeda Pharmaceutical Company Limited, priority 2019, dated 2023).

Where only a bound is given, the exact number is not on record here.

Sequence of human activated kallikrein enzyme (P03952 391-638): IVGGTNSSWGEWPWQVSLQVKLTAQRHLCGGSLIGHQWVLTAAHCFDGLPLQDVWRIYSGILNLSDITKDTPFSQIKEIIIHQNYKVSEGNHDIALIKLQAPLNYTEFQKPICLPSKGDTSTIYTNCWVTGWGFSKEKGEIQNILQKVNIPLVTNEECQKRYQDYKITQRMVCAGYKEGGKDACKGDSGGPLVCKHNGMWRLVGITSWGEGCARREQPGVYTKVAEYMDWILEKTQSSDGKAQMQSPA
Sequence of human activated kallikrein enzyme (P03952 20-390 partner): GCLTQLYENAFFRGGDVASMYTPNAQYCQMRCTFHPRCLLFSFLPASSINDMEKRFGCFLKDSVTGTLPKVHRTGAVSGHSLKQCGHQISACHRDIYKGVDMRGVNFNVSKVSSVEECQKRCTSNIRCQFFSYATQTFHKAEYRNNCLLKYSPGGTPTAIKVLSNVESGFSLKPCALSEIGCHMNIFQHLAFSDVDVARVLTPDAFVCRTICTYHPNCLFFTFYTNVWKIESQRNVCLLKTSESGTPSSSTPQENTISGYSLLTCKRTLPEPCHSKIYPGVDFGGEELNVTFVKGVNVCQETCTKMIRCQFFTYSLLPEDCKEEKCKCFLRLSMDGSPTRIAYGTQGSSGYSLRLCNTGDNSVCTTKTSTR

The first test concerns the target human activated kallikrein enzyme (Homo sapiens (Human), UniProt P03952). Kind of test: Plasma kallikrein inhibition assay with fluorogenic peptide substrate, 500 pM activated kallikrein format. The class given is biochemical. Conditions: 500 pM activated kallikrein; 300 uM Pro-Phe-Arg-7-amido-4-methylcoumarin substrate; 30 min preincubation, 10 min reaction at RT; read-out: Primary Dose Response Assay: Average EC50. An outline of the steps:
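Pro-Phe-Arg-7-amido-4-methylcoumarin substrate (300 uM) started reactions after a 30 min RT enzyme–inhibitor preincubation. This format used 500 pM activated human kallikrein in Tris pH 7.5 buffer with EDTA, NaCl, PEG-400 and Triton X-100. AMC fluorescence (380/460 nm) was measured after 10 min at RT.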
As a reminder, the EC50 is the concentration giving half of the maximal effect. As to `COc1ccc(-c2cc3ccccn3n2)c(CNC(=O)c2cn(Cc3cn4cc(C5CC5)ccc4n3)nn2)c1F` [Example I-63, 1-((6-cyclopropylimidazo[1,2-a]pyridin-2-yl)methyl)-N-(2-fluoro-3-methoxy-6-(pyrazolo[1,5-a]pyridin-2-yl)benzyl)-1H-1,2,3-triazole-4-carboxamide], the EC50 was in the range of 100 to 2000 nM.

As to `COc1ccc(-c2c[nH]nn2)c(CNC(=O)c2cn(Cc3cn4cc(C5CC5)ccc4n3)nn2)c1F` [Example I-49, 1-((6-cyclopropylimidazo[1,2-a]pyridin-2-yl)methyl)-N-(2-fluor-3-methoxy-6-(1H-1,2,3-triazol-4-yl)benzyl)-1H-1,2,3-triazole-4-carboxamide], the half-maximal effective concentration (EC50) was 10 to 100 nM.

As to `COc1ccc(-n2cncn2)c(CNC(=O)c2cn(Cc3cn4cc(C5CC5)ccc4n3)nn2)c1F` [Example I-61, 1-((6-cyclopropylimidazo[1,2-a]pyridin-2-yl)methyl)-N-(2-fluoro-3-methoxy-6-(1H-1,2,4-triazol-1-yl)benzyl)-1H-1,2,3-triazole-4-carboxamide], the concentration giving a half-maximal response (EC50) was no more than 1 nM.

In the case of `COc1ccc(-n2ccnn2)c(CNC(=O)c2cn(Cc3cn4cc(C5CC5)ccc4n3)nn2)c1F` [Example I-76, 1-((6-cyclopropylimidazo[1,2-a]pyridin-2-yl)methyl)-N-(2-fluoro-3-methoxy-6-(1H-1,2,3-triazol-1-yl)benzyl)-1H-1,2,3-triazole-4-carboxamide], the 50% effective concentration (EC50) is no more than 1 nM.

`NCc1ccc(CNS(=O)(=O)c2cnn(Cc3cn4cc(C5CC5)ccc4n3)c2)cc1` [Example I-33, N-(4-(aminomethyl)benzyl)-1-((6-cyclopropylimidazo[1,2-a]pyridin-2-yl)methyl)-1H-pyrazole-4-sulfonamide]: the concentration for a half-maximal effect (EC50) was 2000 to 7100 nM.

Regarding `CCc1ccc(-n2cnnn2)c(CNC(=O)c2cn(Cc3cn4cc(C5CC5)ccc4n3)nn2)c1F` [Example I-83, 1-((6-cyclopropylimidazo[1,2-a]pyridin-2-yl)methyl)-N-(3-ethyl-2-fluoro-6-(1H-tetrazol-1-yl)benzyl)-1H-1,2,3-triazole-4-carboxamide], the concentration giving a half-maximal response (EC50) lay within 10 to 100 nM.

Consider `O=C(NCc1nccc(Cl)n1)c1cn(Cc2cn3cc(C4CC4)ccc3n2)nn1` [Example I-145, N-((4-chloropyrimidin-2-yl)methyl)-1-((6-cyclopropylimidazo[1,2-a]pyridin-2-yl)methyl)-1H-1,2,3-triazole-4-carboxamide], for which the concentration giving a half-maximal response (EC50) was in the range of 100 to 2000 nM.

Turning to `O=C(NCc1ccccc1)c1cn(Cc2cn3cc(C4CC4)ccc3n2)nn1` [Example I-60, N-benzyl-1-((6-cyclopropylimidazo[1,2-a]pyridin-2-yl)methyl)-1H-1,2,3-triazole-4-carboxamide], the EC50 is greater than 7100 nM.

Consider `COc1ccc(-n2cnnn2)c(CNC(=O)c2cncn2Cc2cn3cc(C4CC4)ccc3n2)c1F` [Example I-59, 1-((6-cyclopropylimidazo[1,2-a]pyridin-2-yl)methyl)-N-(2-fluoro-3-methoxy-6-(1H-tetrazol-1-yl)benzyl)-1H-imidazole-5-carboxamide], for which the concentration for a half-maximal effect (EC50) was greater than 7100 nM.

For the compound `COc1ccc(-c2ccnnc2)c(CNC(=O)c2cn(Cc3cn4cc(C5CC5)ccc4n3)nn2)c1F` [Example I-86, 1-((6-cyclopropylimidazo[1,2-a]pyridin-2-yl)methyl)-N-(2-fluoro-3-methoxy-6-(pyridazin-4-yl)benzyl)-1H-1,2,3-triazole-4-carboxamide], the 50% effective concentration (EC50) lay in the range of 1 to 10 nM.

`COc1ccc(-c2c[nH]nn2)c(CNC(=O)c2cn(Cc3cn4cc(C5CC5)ccc4n3)nn2)c1F` [Example I-50]: the EC50 was greater than 7100 nM.

In the case of `COc1ccc(-n2cnnn2)c(CNC(=O)c2cn(Cc3cn4cc(C5CC5)ccc4n3)cn2)c1F` [Example I-55, 1-((6-cyclopropylimidazo[1,2-a]pyridin-2-yl)methyl)-N-(2-fluoro-3-methoxy-6-(1H-tetrazol-1-yl)benzyl)-1H-imidazole-4-carboxamide], the half-maximal effective concentration (EC50) is no more than 1 nM.

On to `O=S(=O)(NCCc1cccc(Cl)c1)c1cnn(Cc2cn3cc(C4CC4)ccc3n2)c1` [Example I-44, N-(3-chlorophenethyl)-1-((6-cyclopropylimidazo[1,2-a]pyridin-2-yl)methyl)-1H-pyrazole-4-sulfonamide], for which the concentration for a half-maximal effect (EC50) is greater than 7100 nM.

Turning to `Nc1nnc(CNC(=O)c2cn(Cc3cn4cc(C5CC5)ccc4n3)nn2)s1` [Example I-20, N-((5-amino-1,3,4-thiadiazol-2-yl)methyl)-1-((6-cyclopropylimidazo[1,2-a]pyridin-2-yl)methyl)-1H-1,2,3-triazole-4-carboxamide], the EC50 lay within 2000 to 7100 nM.

`Cc1cc(C(=N)N)cc(C)c1CNC(=O)c1cn(Cc2cn3cc(C4CC4)cc(C(=O)O)c3n2)nn1` [Example I-111, 2-((4-((4-carbamimidoyl-2,6-dimethylbenzyl)carbamoyl)-1H-1,2,3-triazol-1-yl)methyl)-6-cyclopropylimidazo[1,2-a]pyridine-8-carboxylic Acid]: the EC50 is no more than 1 nM.

As for `CCOC(=O)C(C)(C)Cc1cc(C2CC2)cn2cc(Cn3cc(C(=O)NCc4c(-n5cnnn5)ccc(OC)c4F)nn3)nc12` [Example I-85, ethyl 3-(6-cyclopropyl-2-((4-((2-fluoro-3-methoxy-6-(1H-tetrazol-1-yl)benzyl)carbamoyl)-1H-1,2,3-triazol-1-yl)methyl)imidazo[1,2-a]pyridin-8-yl)-2,2-dimethylpropanoate], the EC50 is no more than 1 nM.

As to `Cc1cc(C(=N)N)cc(C)c1CNC(=O)c1cnn(Cc2cn3cc(C4CC4)ccc3n2)c1` [Example I-103, N-(4-carbamimidoyl-2,6-dimethylbenzyl)-1-((6-cyclopropylimidazo[1,2-a]pyridin-2-yl)methyl)-1H-pyrazole-4-carboxamide], the half-maximal effective concentration (EC50) was no more than 1 nM.

As for `O=C(NCc1c(N2CC3(COC3)C2)ccc(Cl)c1F)c1cnn(Cc2cn3cc(C4CC4)ccc3n2)c1` [Example I-114, N-(3-chloro-2-fluoro-6-(2-oxa-6-azaspiro[3.3]heptan-6-yl)benzyl)-1-((6-cyclopropylimidazo[1,2-a]pyridin-2-yl)methyl)-1H-pyrazole-4-carboxamide], the half-maximal effective concentration (EC50) lay within 100 to 2000 nM.

Consider `COc1ccc(-n2cnnn2)c(CNS(=O)(=O)c2cn(Cc3cn4cc(C5CC5)ccc4n3)nn2)c1F` [Example I-40, 1-((6-cyclopropylimidazo[1,2-a]pyridin-2-yl)methyl)-N-(2-fluoro-3-methoxy-6-(1H-tetrazol-1-yl)benzyl)-1H-1,2,3-triazole-4-sulfonamide], for which the 50% effective concentration (EC50) fell in the range of 10 to 100 nM.

Turning to `O=C(NCc1cn(Cc2cn3cc(C4CC4)ccc3n2)nn1)c1ncc2c(F)c(Cl)ccn12` [Example I-56, 7-chloro-N-((1-((6-cyclopropylimidazo[1,2-a]pyridin-2-yl)methyl)-1H-1,2,3-triazol-4-yl)methyl)-8-fluoroimidazo[1,5-a]pyridine-3-carboxamide], the EC50 is greater than 7100 nM.

Turning to `COc1ccc(-n2cnnn2)c(CNC(=O)c2cn(Cc3cn4cc(C5CC5)ccc4n3)nn2)c1F` [Example I-105, 1-((6-cyclopropylimidazo[1,2-a]pyridin-2-yl)methyl)-N-(2-fluoro-3-methoxy-6-(1H-tetrazol-1-yl)benzyl)-1H-1,2,3-triazole-4-carboxamide], the EC50 was no more than 1 nM.

The test is the same for the next values; noted with them: comparative compounds (Table III); 500 pM activated kallikrein format; read-out: Primary Dose Response Assay: Average EC50.
Regarding `O=C(NCc1ncn2ccc(Cl)c(F)c12)c1cn(Cc2ccc3nccnc3c2)nn1`, the EC50 was in the range of 10 to 100 nM.

For the compound `NC(=O)c1cnn(Cc2cn3cc(C4CC4)ccc3n2)c1`, the concentration for a half-maximal effect (EC50) was greater than 7100 nM.
